Data on 25 molecules can be found in patent US20240343706A1, “PIPERIDINE-2,6-DIONE DERIVATIVES WHICH BIND TO CEREBLON, AND METHODS OF USE THEREOF” (Captor Therapeutics S.A., priority 2019, published 2024).

Assay [1] deals with CRBN-DDB1 protein complex (Homo sapiens, UniProt Q96SW2). The experiment in a line: Fluorescence polarization (FP) assay, displacement of Cy5-labelled thalidomide. Particulars: 25 nM CRBN-DDB1, 5 nM Cy5-labelled thalidomide, read-out: CRBN binding Ki. As for the experimental part:
CRBN-DDB1 protein complex was mixed with Cy5-labelled thalidomide and a compound to be tested (the “test compound”). […] The test solution was added to a 384-well assay plate.
The plate was spun-down (1 min, 1000 rpm, 22° C.) and then shaken using a VibroTurbulator for 10 min at room temperature (20-25° C.), with the frequency set to level 3. The assay plate with protein and the tracer was incubated for 60 min at room temperature (20-25° C.) prior to read-out with a plate reader.
The FP experiment was carried out with various concentrations of the test compounds in order to measure Ki values.
In general terms: Fluorescence polarisation rises when a labelled molecule tumbles more slowly, as on binding a larger partner.

The test system of the next assay is IKZF3. Kind of assay: IKZF3 degradation assay, H929 cell line (western blot densitometry). The format is cell-based. The note with it: H929 cells. (In general: In western blotting, separated proteins are transferred to a membrane and probed.)
In a further assay the test system is IKZF1. The experiment in a line: IKZF1 degradation assay, H929 cell line (western blot densitometry). The format is cell-based. Particulars: H929 cells; for % of protein reduction based on densitometry values, IKZF 1 (24 H): summary Table 10, 20 μM (some compounds 10 and 20 μM). The source says: (§1) After primary and secondary Ab staining, the membranes were washed and signals developed. The densitometry analysis was implemented to obtain the numeric values used later in the protein level evaluation process.

The next assay deals with SALL4. The experiment in a line: SALL4 degradation assay, Kelly cell line (western blot densitometry). The format is cell-based. The note with it: summary Table 10; Kelly cells, 24 H; 20 μM (some compounds 10 and 20 μM).
Text: as §1

For another assay, the system named is CK1α. Kind of assay: CK1α degradation assay, Kelly cell line (western blot densitometry). The format is cell-based. The note with it: summary Table 10; Kelly cells, 24 H; 20 μM (some compounds 10 and 20 μM).
Text: as §1

Sequence of CRBN-DDB1 protein complex (Q96SW2 whole entry): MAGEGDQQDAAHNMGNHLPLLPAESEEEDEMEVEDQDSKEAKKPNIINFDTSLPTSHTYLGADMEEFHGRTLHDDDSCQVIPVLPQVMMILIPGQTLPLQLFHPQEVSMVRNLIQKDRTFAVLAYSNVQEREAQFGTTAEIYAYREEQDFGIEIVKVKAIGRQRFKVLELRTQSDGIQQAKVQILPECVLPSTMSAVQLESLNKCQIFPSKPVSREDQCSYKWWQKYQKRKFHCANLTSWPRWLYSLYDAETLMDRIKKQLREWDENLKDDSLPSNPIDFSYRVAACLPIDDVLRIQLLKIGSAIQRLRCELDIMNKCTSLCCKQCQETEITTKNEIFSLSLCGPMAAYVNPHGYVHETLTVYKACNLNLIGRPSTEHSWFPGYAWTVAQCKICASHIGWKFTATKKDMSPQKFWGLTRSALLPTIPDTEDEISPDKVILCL
Sequence of CRBN-DDB1 protein complex (Q16531 whole entry partner): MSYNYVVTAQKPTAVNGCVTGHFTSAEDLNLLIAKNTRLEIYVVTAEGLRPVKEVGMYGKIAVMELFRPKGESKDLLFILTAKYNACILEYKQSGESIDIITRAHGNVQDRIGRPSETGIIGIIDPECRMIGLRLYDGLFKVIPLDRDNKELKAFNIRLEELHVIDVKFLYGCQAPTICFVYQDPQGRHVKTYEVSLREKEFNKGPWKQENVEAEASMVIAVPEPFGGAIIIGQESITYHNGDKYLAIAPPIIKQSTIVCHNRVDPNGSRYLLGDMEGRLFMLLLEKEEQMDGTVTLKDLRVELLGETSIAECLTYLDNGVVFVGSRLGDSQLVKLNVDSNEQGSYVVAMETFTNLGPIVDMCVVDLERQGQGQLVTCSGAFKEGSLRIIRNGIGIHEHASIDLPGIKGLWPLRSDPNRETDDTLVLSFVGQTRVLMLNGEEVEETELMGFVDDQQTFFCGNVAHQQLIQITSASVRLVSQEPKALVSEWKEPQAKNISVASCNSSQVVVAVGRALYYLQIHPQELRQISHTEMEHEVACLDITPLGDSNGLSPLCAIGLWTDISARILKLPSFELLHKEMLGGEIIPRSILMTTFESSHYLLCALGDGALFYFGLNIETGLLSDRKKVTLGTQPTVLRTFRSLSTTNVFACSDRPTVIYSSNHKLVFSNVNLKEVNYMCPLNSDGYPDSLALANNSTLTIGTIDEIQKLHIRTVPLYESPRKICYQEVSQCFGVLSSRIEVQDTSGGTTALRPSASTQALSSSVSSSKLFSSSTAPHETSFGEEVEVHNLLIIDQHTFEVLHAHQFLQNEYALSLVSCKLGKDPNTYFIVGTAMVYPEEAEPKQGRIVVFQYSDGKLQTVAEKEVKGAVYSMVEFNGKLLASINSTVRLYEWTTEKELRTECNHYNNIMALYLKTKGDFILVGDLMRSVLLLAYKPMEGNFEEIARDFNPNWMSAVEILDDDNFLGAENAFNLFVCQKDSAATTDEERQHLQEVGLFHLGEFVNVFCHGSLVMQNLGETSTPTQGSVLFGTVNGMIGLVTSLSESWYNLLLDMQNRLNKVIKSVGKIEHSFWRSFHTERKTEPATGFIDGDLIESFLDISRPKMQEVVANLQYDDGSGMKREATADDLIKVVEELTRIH

As to `O=C1CCC(NC(=O)c2cccc3[nH]nnc23)C(=O)N1` (stereo not drawn) [Compound 55, N-(2,6-dioxopiperidin-3-yl)-1H-benzo[d][1,2,3]triazole-4-carboxamide], the Ki in assay [1] is 1 to 10 µM. Further, the “% of IKZF3 protein reduction based on densitometry values, IKZF3 Band I” value was ≤25% (≤25% for 0-25% of IKZF3 protein reduction) in the assay with IKZF3 (10 μM, 24 h) and ≤25% (≤25% for 0-25% of IKZF3 protein reduction) with IKZF3 (20 μM, 24 h). Further, the “% of IKZF3 protein reduction based on densitometry values, IKZF3 Band II” value is listed as ≤25% (≤25% for 0-25% of IKZF3 protein reduction) in the assay with IKZF3 (10 μM, 24 h) and ≤25% (≤25% for 0-25% of IKZF3 protein reduction) with IKZF3 (20 μM, 24 h).

Take `O=C1CCC(NC(=O)c2cccc3[nH]c(Cl)nc23)C(=O)N1` (stereo not drawn) [Compound 12, 2-chloro-N-(2,6-dioxopiperidin-3-yl)-1H-benzo[d]imidazole-4-carboxamide]: the inhibitory constant (Ki) in assay [1] was less than 1 µM.

`Cc1sc2c(c1C)C(c1ccc(Cl)cc1)=N[C@@H](CC(=O)Nc1ccc(OCCOCCOCCNC(=O)CCc3nc4c(C(=O)NC5CCC(=O)NC5=O)cccc4[nH]3)cc1)c1nnc(C)n1-2` (stereo partly drawn) [Compound 63, 2-(3-((2-(2-(2-(4-(2-((S)-4-(4-chlorophenyl)-2,3,9-trimethyl-6H-thieno[3,2-f][1,2,4]triazolo[4,3-a][1,4]diazepin-6-yl)acetamido)phenoxy)ethoxy)ethoxy)ethyl)amino)-3-oxopropyl)-N-(2,6-dioxopiperidin-3-yl)-1H-benzo[d]imidazole-7-carboxamide]: in assay [1], the Ki lay within 1 to 10 µM.

As for `O=C1CCC(NC(=O)c2cccc3c(Br)n[nH]c23)C(=O)N1` (stereo not drawn) [Compound 42, 3-bromo-N-(2,6-dioxopiperidin-3-yl)-1H-indazole-7-carboxamide], the Ki in assay [1] was in the range of 10 to 50 µM.

On to `Cc1sc2c(c1C)C(c1ccc(Cl)cc1)=N[C@@H](CC(=O)Nc1ccc(OCCOCCOCCOCCNc3cccc4c3C(=O)N(C3CCC(=O)NC3=O)C4=O)cc1)c1nnc(C)n1-2` (stereo partly drawn) [ARV-825, reference compound], for which the “% of IKZF1 α protein reduction based on densitometry values” in the assay on IKZF1 (0.1 μM, 6 h) is recorded as >25% (>25% for 26-74% of IKZF1 protein reduction); in the assay with IKZF1 (1 μM, 6 h), >25% (>25% for 26-74% of IKZF1 protein reduction); in the assay on IKZF1 (10 μM, 6 h), >25% (>25% for 26-74% of IKZF1 protein reduction). In the assay on IKZF1 (6 h, 0.1-10 μM), this molecule gave an IKZF1 degradation of roughly 50%. The “% of IKZF3 protein reduction based on densitometry values, IKZF3 Band I” value in the assay on IKZF3 (0.1 μM, 6 h) is >25% (>25% for 26-74% of IKZF3 protein reduction); in the assay on IKZF3 (1 μM, 6 h) it was >25% (>25% for 26-74% of IKZF3 protein reduction); with IKZF3 (10 μM, 6 h), >25% (>25% for 26-74% of IKZF3 protein reduction). In addition, the “% of IKZF3 protein reduction based on densitometry values, IKZF3 Band II” value in the assay on IKZF3 (0.1 μM, 6 h) is recorded as >25% (>25% for 26-74% of IKZF3 protein reduction); in the assay on IKZF3 (1 μM, 6 h) it was >25% (>25% for 26-74% of IKZF3 protein reduction); in the assay on IKZF3 (10 μM, 6 h), >25% (>25% for 26-74% of IKZF3 protein reduction). The same molecule displayed an IKZF3 degradation in the assay on IKZF3 (6 h, 0.1-10 μM) of roughly 60%.

Consider `Cc1nc2cccc(C(=O)NC3CCC(=O)NC3=O)c2s1` (stereo not drawn) [Compound 53, N-(2,6-dioxopiperidin-3-yl)-2-methylbenzo[d]thiazole-7-carboxamide], for which the Ki in assay [1] fell in the range of 1 to 10 µM.

With `O=C1CCC(NC(=O)c2ccnc3scnc23)C(=O)N1` (stereo not drawn) [Compound 54, N-(2,6-dioxopiperidin-3-yl)thiazolo[5,4-b]pyridine-7-carboxamide], the inhibition constant Ki in assay [1] is 1 to 10 µM.

For the molecule `Cc1nc2c(C(=O)NC3CCC(=O)NC3=O)cccc2o1` (stereo not drawn) [Compound 51, N-(2,6-dioxopiperidin-3-yl)-2-methylbenzo[d]oxazole-4-carboxamide], the inhibition constant Ki in assay [1] is 1 to 10 µM.

With `O=C1CCC(NC(=O)c2cc(Br)cc3cn[nH]c23)C(=O)N1` (stereo not drawn) [Compound 47, 5-bromo-N-(2,6-dioxopiperidin-3-yl)-1H-indazole-7-carboxamide], the Ki in assay [1] is 1 to 10 µM.

`CCCCCC(=O)Nc1cc(C(=O)NC2CCC(=O)NC2=O)c2c(c1)ncn2C` (stereo not drawn) [Compound 6, N-(2,6-dioxopiperidin-3-yl)-5-hexanamido-1-methyl-1H-benzo[d]imidazole-7-carboxamide]: the “% of protein reduction based on densitometry values, SALL4 (24 H)” value (“% of protein reduction based … SALL4 (24 H)” below) in the assay on SALL4 is ≤25% (≤25% for 0-25% of SALL4 protein reduction). Also, in the assay with CK1α, the “% of protein reduction based on densitometry values, CK1α (24 H)” value (shortened to “% of protein reduction based … CK1α (24 H)”) is on record as ≤25% (≤25% for 0-25% of CK1a protein reduction). In addition, the “% of protein reduction based on densitometry values, IKZF 1 (24 H)” value (“% of protein reduction based … IKZF 1 (24 H)” below) with IKZF1 is ≤25% (≤25% for 0-25% of IKZF1 protein reduction).

Turning to `O=C1CCC(NC(=O)c2ccnc3[nH]cnc23)C(=O)N1` (stereo not drawn) [Compound 9, N-(2,6-dioxopiperidin-3-yl)-3H-imidazo[4,5-b]pyridine-7-carboxamide], the Ki in assay [1] lay within 1 to 10 µM.

Take `O=C1CCC(NC(=O)c2cncc3[nH]cnc23)C(=O)N1` (stereo not drawn) [Compound 10, N-(2,6-dioxopiperidin-3-yl)-3H-imidazo[4,5-c]pyridine-7-carboxamide]: the Ki in assay [1] lay within 1 to 10 µM.

Consider `O=C1CCC(NC(=O)c2nccc3[nH]cnc23)C(=O)N1` (stereo not drawn) [Compound 11, N-(2,6-dioxopiperidin-3-yl)-1H-imidazo[4,5-c]pyridine-4-carboxamide], for which the inhibition constant Ki in assay [1] is 1 to 10 µM.

On to `Cc1cc2cccc(C(=O)NC3CCC(=O)NC3=O)c2s1` (stereo not drawn) [Compound 41, N-(2,6-dioxopiperidin-3-yl)-2-methylbenzo[b]thiophene-7-carboxamide], for which the Ki in assay [1] fell in the range of 1 to 10 µM.

As to `O=C1CCC(NC(=O)c2csc3[nH]cnc23)C(=O)N1` (stereo not drawn) [Compound 60, N-(2,6-dioxopiperidin-3-yl)-1H-thieno[2,3-d]imidazole-6-carboxamide], the Ki in assay [1] fell in the range of 1 to 10 µM.

`O=C1CCC(NC(=O)c2cccc3nnsc23)C(=O)N1` (stereo not drawn) [Compound 58]: the Ki in assay [1] lay in the range of 10 to 50 µM.

For `Cc1nc2c(C(=O)NC3CCC(=O)NC3=O)c(OCC(=O)NCCCCCCCCNC(=O)C[C@@H]3N=C(c4ccc(Cl)cc4)c4c(sc(C)c4C)-n4c(C)nnc43)ccc2[nH]1` (stereo partly drawn) [Compound 67, 6-(2-((8-(2-((S)-4-(4-chlorophenyl)-2,3,9-trimethyl-6H-thieno[3,2-f][1,2,4]triazolo[4,3-a][1,4]diazepin-6-yl)acetamido)octyl)amino)-2-oxoethoxy)-N-(2,6-dioxopiperidin-3-yl)-2-methyl-1H-benzo[d]imidazole-7-carboxamide], in assay [1], the inhibitory constant (Ki) lay in the range of 1 to 10 µM.

As for `Cn1cnc2cccc(C(=O)NC3CCC(=O)NC3=O)c21` (stereo not drawn) [Compound 5, N-(2,6-dioxopiperidin-3-yl)-1-methyl-1H-benzo[d]imidazole-7-carboxamide], the “% of protein reduction based … SALL4 (24 H)” value in the assay with SALL4 is given as ≤25% (≤25% for 0-25% of SALL4 protein reduction). In addition, the “% of protein reduction based … CK1α (24 H)” value with CK1α is ≤25% (≤25% for 0-25% of CK1a protein reduction). Moreover, the “% of protein reduction based … IKZF 1 (24 H)” value in the assay with IKZF1 was ≤25% (≤25% for 0-25% of IKZF1 protein reduction).

Take `O=C1CCC(NC(=O)c2cccc3c(-c4cccs4)n[nH]c23)C(=O)N1` (stereo not drawn) [Compound 43, N-(2,6-dioxopiperidin-3-yl)-3-(thiophen-2-yl)-1H-indazole-7-carboxamide]: the Ki in assay [1] lay in the range of 1 to 10 µM.

In the case of `Cc1nc2c(C(=O)NC3CCCC(=O)NC3=O)cccc2[nH]1` (stereo not drawn) [Compound 20, N-(2,7-dioxoazepan-3-yl)-2-methyl-1H-benzo[d]imidazole-4-carboxamide], the “% of protein reduction based … SALL4 (24 H)” value in the assay on SALL4 was ≤25% (≤25% for 0-25% of SALL4 protein reduction). For the same molecule, the “% of protein reduction based … CK1α (24 H)” value in the assay on CK1α is recorded as ≤25% (≤25% for 0-25% of CK1a protein reduction). In addition, the “% of protein reduction based … IKZF 1 (24 H)” value in the assay with IKZF1 is ≤25% (≤25% for 0-25% of IKZF1 protein reduction).

In the case of `Nc1ccc2cn[nH]c2c1C(=O)NC1CCC(=O)NC1=O` (stereo not drawn) [Compound 48, 6-amino-N-(2,6-dioxopiperidin-3-yl)-1H-indazole-7-carboxamide], the Ki in assay [1] fell in the range of 1 to 10 µM.

For the molecule `O=C1CCC(NC(=O)c2cccc3nc[nH]c23)C(=O)N1` (stereo not drawn) [Compound 2, N-(2,6-dioxopiperidin-3-yl)-1H-1,3-benzodiazole-7-carboxamide], in assay [1], the Ki fell in the range of 1 to 10 µM.

Turning to `Nc1ccc2[nH]c(C(F)(F)F)nc2c1C(=O)NC1CCC(=O)NC1=O` (stereo not drawn) [Compound 26, 6-amino-N-(2,6-dioxopiperidin-3-yl)-2-(trifluoromethyl)-1H-1,3-benzodiazole-7-carboxamide], in assay [1], the Ki lay within 1 to 10 µM.

For `N#Cc1nc2c(C(=O)NC3CCC(=O)NC3=O)cccc2[nH]1` (stereo not drawn) [Compound 22, 2-cyano-N-(2,6-dioxopiperidin-3-yl)-1H-benzo[d]imidazole-4-carboxamide], the Ki in assay [1] was less than 1 µM.

Turning to `Cc1nc2cccc(C(=O)NC3CCC(=O)NC3=O)c2o1` (stereo not drawn) [Compound 52, N-(2,6-dioxopiperidin-3-yl)-2-methylbenzo[d]oxazole-7-carboxamide], the inhibitory constant (Ki) in assay [1] lay within 1 to 10 µM.

One may read the Ki as the equilibrium dissociation constant of an inhibitor or competing ligand from its target.
